Data on eleven molecules can be found in patent US20250361210A1, “3,4-DIHYDROQUINOLIN-2(1H)-ONE COMPOUND” (Kissei Pharmaceutical Co., Ltd., priority 2022, published 2025).

Some results are limits rather than exact numbers.

T1 sequence (P16473 21-764): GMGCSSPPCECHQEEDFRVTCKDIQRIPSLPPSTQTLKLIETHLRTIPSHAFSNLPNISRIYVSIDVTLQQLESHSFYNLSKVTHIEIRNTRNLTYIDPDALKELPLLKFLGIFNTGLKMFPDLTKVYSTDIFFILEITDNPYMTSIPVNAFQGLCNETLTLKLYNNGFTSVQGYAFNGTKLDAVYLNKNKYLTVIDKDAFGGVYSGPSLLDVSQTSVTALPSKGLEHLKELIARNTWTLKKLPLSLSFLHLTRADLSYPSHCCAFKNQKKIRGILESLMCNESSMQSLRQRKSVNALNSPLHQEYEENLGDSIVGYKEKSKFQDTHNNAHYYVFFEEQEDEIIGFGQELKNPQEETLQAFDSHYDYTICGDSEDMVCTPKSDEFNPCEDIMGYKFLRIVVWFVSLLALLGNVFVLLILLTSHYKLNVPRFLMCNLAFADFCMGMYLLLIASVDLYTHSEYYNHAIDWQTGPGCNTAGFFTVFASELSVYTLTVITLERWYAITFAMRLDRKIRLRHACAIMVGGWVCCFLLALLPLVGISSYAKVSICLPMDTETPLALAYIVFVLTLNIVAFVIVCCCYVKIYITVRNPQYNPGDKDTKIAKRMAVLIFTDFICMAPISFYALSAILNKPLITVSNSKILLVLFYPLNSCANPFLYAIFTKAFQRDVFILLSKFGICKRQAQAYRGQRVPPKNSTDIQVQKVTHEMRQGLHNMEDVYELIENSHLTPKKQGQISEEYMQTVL

One assay has as its target T1, human TSHR (Homo sapiens, UniProt P16473).
T1 construct: expressed in transfected cells
The assay is described as follows: Antagonist activity using TSH-induced cAMP production in human TSHR-stably expressing CHO cells. The assay is classed as cell-based. To be noted: human TSH 50 ng/mL. Here is the method: Measurement of Antagonist Activity Using TSH-Induced cAMP Production in Human TSHR-Stably Expressing CHO Cells as an Indicator
The human TSHR gene sequence (reference number NM_000369.2) was inserted into the multicloning site of pcDNA3.1(+). The constructed plasmid vector was introduced into CHO cells using the lipofection method to establish human TSHR-stably expressing CHO cells. The obtained cells were seeded at 5×10^4 cells/well in a 96-well poly-D-lysine-coated plate, and cultured in an F12 culture medium containing 10% FBS, 400 μg/mL of G418, 50 U/mL of penicillin and 50 μg/mL of streptomycin under conditions of 37° C. and 5% CO2 for 1 day. After the culture medium was removed, the cells were washed twice with 100 μL of an assay buffer solution (Hanks' Balanced Salt Solution containing 20 mM HEPES and 1 mM IBMX) per well. 30 μL of a test compound-containing assay buffer solution was added to the well and incubated at room temperature for 15 minutes. Then, 30 μL of an assay buffer solution containing human TSH (final concentration 50 ng/mL, R&D Systems, Inc.) was added, and incubated at 37° C. for 1 hour. The supernatant was removed, a Lysis and Detection Buffer 2 (Cisbio) was added, and the mixture was incubated at room temperature for 1 hour to prepare a cell lysate. According to the instruction manual of a cAMP Gs HiRange kit (Cisbio), the cell lysate, d2-labeled cAMP and anti-cAMP Europium Cryptate labeled antibodies (Cisbio) were reacted in a 384-well white microplate. Then, a fluorescence intensity ratio (measurement wavelength 665 nm/620 nm) was measured using a multi-plate reader (PHERAstar FSX, BMG LABTECH, Japan). The fluorescence intensity ratio of each sample was converted to a cAMP content using a standard curve. The cAMP content was converted as a percentage of the control value to calculate the cAMP production rate. The CAMP production rate was plotted against the test compound concentration using Prism (Graph Pad Software Inc.) to calculate the IC50 value. The IC50 of each test compound is shown in the above tables. In the tables, IC50<0.5 μM: A, 0.5 μM≤IC50<3.0 μM: B, 3.0 μM≤IC50<30 μM: C are shown.
In turn, `CN1C(=O)C(NC(N)=O)Cc2ccc(Cl)c(Oc3ccccc3)c21` (centres unmarked) [Example 8] gave an IC50 of 500 to 3000 nM.

Regarding `CN1C(=O)[C@H](NC(N)=O)Cc2ccc(F)c(Oc3ccccc3Cl)c21` [Example 19, ((3R)-8-(2-chlorophenoxy)-7-fluoro-1-methyl-2-oxo-1,2,3,4-tetrahydroquinolin-3-yl)urea], the IC50 is under 500 nM.

As for `Cc1ccc2c(c1Oc1cc(F)ccc1Cl)N(C)C(=O)[C@H](NC(=O)CC(F)(F)F)C2` [Example 85, N-((3R)-8-(2-chloro-5-fluorophenoxy)-1,7-dimethyl-2-oxo-1,2,3,4-tetrahydroquinolin-3-yl)-3,3,3-trifluoropropanamide], the IC50 was under 500 nM.

For the molecule `CN1C(=O)[C@H](NC(N)=O)Cc2ccc(F)c(Oc3cc(F)ccc3Cl)c21` [Example 44, ((3R)-8-(2-chloro-5-fluorophenoxy)-7-fluoro-1-methyl-2-oxo-1,2,3,4-tetrahydroquinolin-3-yl)urea], the IC50 is under 500 nM.

`CN1C(=O)[C@H](NC(N)=O)Cc2cccc(Cc3ccccc3Cl)c21` [Example 51, ((3R)-8-((2-chlorophenyl)methyl)-1-methyl-2-oxo-1,2,3,4-tetrahydroquinolin-3-yl)urea] returned an IC50 of under 500 nM.

`CN1C(=O)[C@H](NC(N)=O)Cc2cccc(Oc3ccccc3Cl)c21` [Example 40, ((3R)-8-(2-chlorophenoxy)-1-methyl-2-oxo-1,2,3,4-tetrahydroquinolin-3-yl)urea] returned an IC50 of under 500 nM.

Molecule `CN1C(=O)[C@H](NC(N)=O)Cc2cccc(Cc3ccccc3C(F)(F)F)c21` [Example 53, ((3R)-1-methyl-2-oxo-8-((2-(trifluoromethyl)phenyl)methyl)-1,2,3,4-tetrahydroquinolin-3-yl)urea] yielded an IC50 of under 500 nM.

Regarding `CN1C(=O)[C@H](NC(N)=O)Cc2cccc(Oc3ccccc3C(F)F)c21` [Example 18, ((3R)-8-(2-(difluoromethyl)phenoxy)-1-methyl-2-oxo-1,2,3,4-tetrahydroquinolin-3-yl)urea], the IC50 was under 500 nM.

In turn, `COc1ccc(Cl)c(Oc2cccc3c2N(C)C(=O)[C@H](NC(N)=O)C3)c1` [Example 30, ((3R)-8-(2-chloro-5-methoxyphenoxy)-1-methyl-2-oxo-1,2,3,4-tetrahydroquinolin-3-yl)urea] returned an IC50 of under 500 nM.

As to `CN1C(=O)[C@H](NC(N)=O)Cc2cccc(OC3CCCC3)c21` [Example 42, ((3R)-8-(cyclopentyloxy)-1-methyl-2-oxo-1,2,3,4-tetrahydroquinolin-3-yl)urea], the IC50 fell in the range of 500 to 3000 nM.

The target in a further assay is T2, TSHR (Mus musculus, UniProt P47750).
T2 construct: host or cells: mice (in vivo)
T2 sequence (P47750 22-764): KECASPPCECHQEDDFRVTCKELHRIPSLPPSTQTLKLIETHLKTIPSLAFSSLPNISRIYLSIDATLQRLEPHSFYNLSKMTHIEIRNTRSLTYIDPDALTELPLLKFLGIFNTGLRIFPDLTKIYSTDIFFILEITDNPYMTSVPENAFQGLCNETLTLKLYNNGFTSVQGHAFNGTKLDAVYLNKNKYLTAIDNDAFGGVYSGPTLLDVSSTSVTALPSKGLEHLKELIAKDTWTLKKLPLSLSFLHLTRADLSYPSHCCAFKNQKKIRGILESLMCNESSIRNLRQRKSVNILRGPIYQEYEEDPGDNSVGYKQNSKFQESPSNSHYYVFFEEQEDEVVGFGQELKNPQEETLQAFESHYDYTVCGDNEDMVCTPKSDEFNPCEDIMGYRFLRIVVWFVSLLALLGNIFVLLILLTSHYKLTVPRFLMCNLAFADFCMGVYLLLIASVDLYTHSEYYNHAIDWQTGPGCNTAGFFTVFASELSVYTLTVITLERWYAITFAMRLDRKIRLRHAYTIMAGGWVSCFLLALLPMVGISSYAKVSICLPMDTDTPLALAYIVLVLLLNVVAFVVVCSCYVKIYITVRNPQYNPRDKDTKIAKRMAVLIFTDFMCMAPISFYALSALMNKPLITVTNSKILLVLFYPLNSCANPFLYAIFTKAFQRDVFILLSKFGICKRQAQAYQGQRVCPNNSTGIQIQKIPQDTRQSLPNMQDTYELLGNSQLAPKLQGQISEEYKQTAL
Test: not given
To be noted: mice in which TRH has been administered and mice in which thyroid stimulating antibodies M22 has been administered; cited from earlier work.
For the molecule `COc1ccc(C2Nc3ccccc3C(=O)N2Cc2ccco2)cc1COc1c(C)cc(NC(C)=O)cc1C` (centres unmarked) [NCGC00242364], the “blood T4 concentration” value is “blood T4 concentration lowering effect”.
